“And” between values parts separate entries of the source, which are not always exact repeats. Identical values can stand only once.
How the values were obtained:
Test in all cases: MTT assay, growth inhibition by deguelin or deguelin derivatives
Type in all cases: cell-based
Details in all cases: 3 days; for % control: control = 1
H1299 = system: H1299
H596 = system: H596
H460 = system: H460
A549 = system: A549

## COc1cc2c(cc1OC)C1C(=O)c3ccc4c(c3OC1CO2)CCC(C)(C)O4 (stereo not drawn) [Drug 11]
H1299; H1299, 0.01 μM
  Average (MTT assay reading): 0.5019
  MTT assay reading, replicate well: 0.573 and 0.553 and 0.567 and 0.483 and 0.493 and 0.424 and 0.42
  % control: 0.65
H1299; H1299, 0.1 μM
  Average (MTT assay reading): 0.2847
  MTT assay reading, replicate well: 0.302 and 0.338 and 0.317 and 0.271 and 0.215 and 0.272 and 0.278
  % control: 0.37
H1299; H1299, 0.5 μM
  Average (MTT assay reading): 0.3656
  MTT assay reading, replicate well: 0.275 and 0.579 and 0.324 and 0.32 and 0.398 and 0.294 and 0.369
  % control: 0.48
H1299; H1299, 1 μM
  Average (MTT assay reading): 0.2179
  MTT assay reading, replicate well: 0.157 and 0.202 and 0.236 and 0.233 and 0.217 and 0.262 and 0.218
  % control: 0.28
H596; H596, 0.01 μM
  Average (MTT assay reading): 1.262
  MTT assay reading, replicate well: 1.286 and 1.422 and 1.376 and 1.041 and 1.247 and 1.293 and 1.168
  % control: 0.76
H596; H596, 0.1 μM
  Average (MTT assay reading): 0.6487
  MTT assay reading, replicate well: 0.677 and 0.894 and 0.729 and 0.59 and 0.476 and 0.579 and 0.596
  % control: 0.39
H596; H596, 0.5 μM
  Average (MTT assay reading): 0.4131
  MTT assay reading, replicate well: 0.469 and 0.448 and 0.439 and 0.322 and 0.282 and 0.424 and 0.508
  % control: 0.25
H596; H596, 1 μM
  Average (MTT assay reading): 0.4389
  MTT assay reading, replicate well: 0.385 and 0.377 and 0.447 and 0.585 and 0.404 and 0.429 and 0.445
  % control: 0.26
H460; H460, 0.01 μM
  Average (MTT assay reading): 0.6664
  MTT assay reading, replicate well: 0.67 and 0.672 and 0.578 and 0.697 and 0.719 and 0.651 and 0.678
  % control: 0.57
H460; H460, 0.1 μM
  Average (MTT assay reading): 0.3214
  MTT assay reading, replicate well: 0.352 and 0.354 and 0.375 and 0.234 and 0.26 and 0.303 and 0.372
  % control: 0.27
H460; H460, 0.5 μM
  Average (MTT assay reading): 0.3358
  MTT assay reading, replicate well: 0.372 and 0.35 and 0.36 and 0.296 and 0.2577 and 0.283 and 0.432
  % control: 0.29
H460; H460, 1 μM
  Average (MTT assay reading): 0.3296
  MTT assay reading, replicate well: 0.314 (2×) and 0.376 and 0.344 and 0.302 and 0.291 and 0.366
  % control: 0.28
A549; A549, 0.01 μM
  Average (MTT assay reading): 0.7456
  MTT assay reading, replicate well: 0.779 and 0.766 and 0.723 and 0.736 and 0.77 and 0.75 and 0.695
  % control: 1.29
A549; A549, 0.1 μM
  Average (MTT assay reading): 0.3701
  MTT assay reading, replicate well: 0.343 and 0.313 and 0.358 and 0.362 and 0.405 and 0.375 and 0.435
  % control: 0.64
A549; A549, 0.5 μM
  Average (MTT assay reading): 0.4303
  MTT assay reading, replicate well: 0.355 and 0.444 and 0.514 and 0.418 and 0.47 and 0.413 and 0.398
  % control: 0.75
A549; A549, 1 μM
  Average (MTT assay reading): 0.345
  MTT assay reading, replicate well: 0.303 and 0.302 and 0.313 and 0.359 and 0.422 and 0.316 and 0.4
  % control: 0.60

## COc1cc2c(cc1OC)C1C(=O)c3ccc4c(c3OC1CO2)CC([Se]c1ccccc1)C(C)(C)O4 (stereo not drawn) [Drug 12]
H1299; H1299, 0.01 μM
  Average (MTT assay reading): 0.5509
  MTT assay reading, replicate well: 0.513 and 0.438 and 0.626 and 0.426 and 0.609 and 0.729 and 0.515
  % control: 0.72
H1299; H1299, 0.1 μM
  Average (MTT assay reading): 0.4999
  MTT assay reading, replicate well: 0.514 and 0.55 and 0.568 and 0.409 and 0.465 and 0.466 and 0.527
  % control: 0.65
H1299; H1299, 0.5 μM
  Average (MTT assay reading): 0.628
  MTT assay reading, replicate well: 0.637 and 0.549 and 0.636 and 0.614 and 0.847 and 0.655 and 0.458
  % control: 0.82
H1299; H1299, 1 μM
  Average (MTT assay reading): 0.4001
  MTT assay reading, replicate well: 0.434 and 0.41 and 0.413 and 0.451 and 0.378 and 0.357 and 0.358
  % control: 0.52
H596; H596, 0.01 μM
  Average (MTT assay reading): 1.421
  MTT assay reading, replicate well: 1.468 and 1.111 and 1.465 and 1.374 and 1.701 and 1.481 and 1.344
  % control: 0.86
H596; H596, 0.1 μM
  Average (MTT assay reading): 1.683
  MTT assay reading, replicate well: 1.911 and 1.663 and 1.92 and 1.666 and 1.398 and 1.603 and 1.623
  % control: 1.01
H596; H596, 0.5 μM
  Average (MTT assay reading): 1.737
  MTT assay reading, replicate well: 1.686 and 1.82 and 1.177 and 1.899 and 1.872 and 2.048 and 1.655
  % control: 1.05
H596; H596, 1 μM
  Average (MTT assay reading): 1.531
  MTT assay reading, replicate well: 1.143 and 1.448 and 1.604 and 1.637 and 1.497 and 1.557 and 1.828
  % control: 0.92
H460; H460, 0.01 μM
  Average (MTT assay reading): 0.7451
  MTT assay reading, replicate well: 0.763 and 0.753 and 0.691 and 0.648 and 0.765 and 0.774 and 0.822
  % control: 0.64
H460; H460, 0.1 μM
  Average (MTT assay reading): 0.721
  MTT assay reading, replicate well: 0.603 and 0.593 and 0.691 and 0.781 and 0.732 and 0.815 and 0.832
  % control: 0.62
H460; H460, 0.5 μM
  Average (MTT assay reading): 0.7127
  MTT assay reading, replicate well: 0.621 and 0.714 and 0.653 and 0.739 and 0.77 and 0.758 and 0.734
  % control: 0.61
H460; H460, 1 μM
  Average (MTT assay reading): 0.7406
  MTT assay reading, replicate well: 0.709 and 0.659 and 0.698 and 0.79 and 0.717 and 0.805 and 0.806
  % control: 0.63
A549; A549, 0.01 μM
  Average (MTT assay reading): 0.6226
  MTT assay reading, replicate well: 0.58 and 0.633 and 0.616 and 0.636 and 0.715 and 0.577 and 0.601
  % control: 1.08
A549; A549, 0.1 μM
  Average (MTT assay reading): 0.6147
  MTT assay reading, replicate well: 0.604 and 0.545 and 0.597 and 0.519 and 0.606 and 0.719 and 0.713
  % control: 1.06
A549; A549, 0.5 μM
  Average (MTT assay reading): 0.5669
  MTT assay reading, replicate well: 0.533 and 0.614 and 0.532 and 0.584 and 0.567 and 0.553 and 0.585
  % control: 0.98
A549; A549, 1 μM
  Average (MTT assay reading): 0.5701
  MTT assay reading, replicate well: 0.534 and 0.536 and 0.557 and 0.571 and 0.586 (2×) and 0.621
  % control: 0.99
